Measured values published in publication PMC11233931, “Remodeling tumor‐associated macrophage for anti‐cancer effects by rational design of irreversible inhibition of mitogen‐activated protein kinase‐activated protein kinase 2” (MedComm, 2024).

Key:
Assay in all cases: Eurofins kinase selectivity profile against 380 other human recombinant kinases (Table S2)
Type in all cases: biochemical
[1] = target: T1, 380 human recombinant protein kinases (Homo sapiens, UniProt P43250); conditions: GRK6(h), read-out: Inhibition rate
T1 construct: purchased Eurofins (Celle Lévescault)
T1 sequence (P43250 whole entry): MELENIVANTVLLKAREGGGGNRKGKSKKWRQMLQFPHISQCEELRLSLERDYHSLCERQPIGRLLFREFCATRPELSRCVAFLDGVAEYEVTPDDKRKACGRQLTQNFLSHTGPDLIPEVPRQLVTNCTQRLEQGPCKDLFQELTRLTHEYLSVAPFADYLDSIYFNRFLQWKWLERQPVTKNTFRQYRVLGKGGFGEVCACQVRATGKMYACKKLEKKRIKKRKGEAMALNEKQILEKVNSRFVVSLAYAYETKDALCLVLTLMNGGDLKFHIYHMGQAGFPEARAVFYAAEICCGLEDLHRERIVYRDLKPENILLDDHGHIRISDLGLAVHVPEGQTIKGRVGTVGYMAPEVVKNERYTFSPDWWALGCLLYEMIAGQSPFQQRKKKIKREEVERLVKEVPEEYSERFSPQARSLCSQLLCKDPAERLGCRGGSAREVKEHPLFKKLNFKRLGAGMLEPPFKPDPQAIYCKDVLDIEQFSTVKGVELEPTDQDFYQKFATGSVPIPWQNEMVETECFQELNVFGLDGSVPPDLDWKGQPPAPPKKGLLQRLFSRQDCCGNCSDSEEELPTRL
In short: (§1)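 Profiling against 380 human recombinant kinases carried out by Eurofins at various compound concentrations.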

[2] = target: T2, 380 human recombinant protein kinases (Homo sapiens, UniProt O95835); conditions: LATS1(h), read-out: Inhibition rate
T2 construct: purchased Eurofins (Celle Lévescault)
T2 sequence (O95835 1-1130): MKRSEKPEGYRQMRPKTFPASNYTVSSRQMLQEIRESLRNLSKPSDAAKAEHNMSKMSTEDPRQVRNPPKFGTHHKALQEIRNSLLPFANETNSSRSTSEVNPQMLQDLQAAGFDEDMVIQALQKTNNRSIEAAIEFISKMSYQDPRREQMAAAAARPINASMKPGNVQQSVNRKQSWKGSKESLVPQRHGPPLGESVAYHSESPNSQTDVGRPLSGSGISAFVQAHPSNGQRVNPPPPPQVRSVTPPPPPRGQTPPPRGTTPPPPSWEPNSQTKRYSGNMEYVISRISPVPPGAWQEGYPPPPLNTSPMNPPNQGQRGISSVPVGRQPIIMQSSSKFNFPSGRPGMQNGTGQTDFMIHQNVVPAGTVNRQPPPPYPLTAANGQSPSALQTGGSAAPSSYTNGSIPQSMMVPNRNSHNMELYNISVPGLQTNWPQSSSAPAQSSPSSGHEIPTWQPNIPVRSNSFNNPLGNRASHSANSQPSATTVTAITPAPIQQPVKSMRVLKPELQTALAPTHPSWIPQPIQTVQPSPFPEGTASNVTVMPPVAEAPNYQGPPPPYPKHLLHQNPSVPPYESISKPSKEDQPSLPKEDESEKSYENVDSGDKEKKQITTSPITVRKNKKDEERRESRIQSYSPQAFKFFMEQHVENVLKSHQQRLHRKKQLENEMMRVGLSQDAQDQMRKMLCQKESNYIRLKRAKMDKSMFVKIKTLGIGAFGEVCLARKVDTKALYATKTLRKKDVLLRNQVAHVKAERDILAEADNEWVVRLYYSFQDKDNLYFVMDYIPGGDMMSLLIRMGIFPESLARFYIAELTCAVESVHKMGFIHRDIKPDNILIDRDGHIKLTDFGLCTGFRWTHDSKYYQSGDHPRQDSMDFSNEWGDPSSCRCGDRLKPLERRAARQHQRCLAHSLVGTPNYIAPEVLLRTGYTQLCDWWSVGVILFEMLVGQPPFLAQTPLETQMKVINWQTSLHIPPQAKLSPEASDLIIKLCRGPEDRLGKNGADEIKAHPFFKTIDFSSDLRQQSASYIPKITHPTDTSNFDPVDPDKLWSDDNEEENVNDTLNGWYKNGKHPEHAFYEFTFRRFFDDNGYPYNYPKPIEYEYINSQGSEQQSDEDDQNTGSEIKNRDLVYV
In short: as §1

[3] = target: T3, 380 human recombinant protein kinases (Homo sapiens, UniProt O75385); conditions: ULK1(h), read-out: Inhibition rate (%)
T3 construct: purchased Eurofins (Celle Lévescault)
T3 sequence (O75385 1-1050): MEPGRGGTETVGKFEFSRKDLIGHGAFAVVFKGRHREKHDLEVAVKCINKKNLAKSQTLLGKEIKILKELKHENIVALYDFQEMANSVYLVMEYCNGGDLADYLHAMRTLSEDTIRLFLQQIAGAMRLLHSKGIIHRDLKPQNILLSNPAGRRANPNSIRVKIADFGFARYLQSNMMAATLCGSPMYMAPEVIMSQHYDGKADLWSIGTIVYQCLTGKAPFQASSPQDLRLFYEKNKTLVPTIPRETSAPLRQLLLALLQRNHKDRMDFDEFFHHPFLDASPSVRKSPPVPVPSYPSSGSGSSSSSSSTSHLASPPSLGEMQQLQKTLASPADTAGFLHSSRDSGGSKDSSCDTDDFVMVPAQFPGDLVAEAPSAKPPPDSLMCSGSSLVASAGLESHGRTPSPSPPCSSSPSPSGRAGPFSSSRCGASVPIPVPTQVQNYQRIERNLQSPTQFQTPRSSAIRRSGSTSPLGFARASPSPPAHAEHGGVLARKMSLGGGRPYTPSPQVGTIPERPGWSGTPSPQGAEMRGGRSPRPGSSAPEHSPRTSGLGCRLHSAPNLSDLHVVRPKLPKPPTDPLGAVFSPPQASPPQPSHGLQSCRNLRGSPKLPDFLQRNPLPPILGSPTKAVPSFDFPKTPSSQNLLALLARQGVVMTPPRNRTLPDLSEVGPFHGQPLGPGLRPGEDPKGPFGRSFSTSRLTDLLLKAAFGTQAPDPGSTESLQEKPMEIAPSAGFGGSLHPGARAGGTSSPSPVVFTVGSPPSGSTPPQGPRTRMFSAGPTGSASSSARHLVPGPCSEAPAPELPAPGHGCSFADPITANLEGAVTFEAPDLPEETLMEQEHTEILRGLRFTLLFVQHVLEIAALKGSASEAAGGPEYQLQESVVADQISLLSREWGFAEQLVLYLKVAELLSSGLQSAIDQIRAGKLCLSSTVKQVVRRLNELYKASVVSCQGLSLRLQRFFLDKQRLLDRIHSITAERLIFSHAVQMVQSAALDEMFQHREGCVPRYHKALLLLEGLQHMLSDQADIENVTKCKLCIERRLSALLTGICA
In short: as §1

`C=CC(=O)Nc1cc(-c2cc(-c3cc4c([nH]3)CCNC4=O)ccn2)ccc1OC(F)(F)F` [compound 11] was tested, and the inhibition at 0.01 µM ([1]; 10 nM) was -1%, the inhibition at 0.1 µM ([1]; 100 nM) was -1% and the inhibition at 1 µM ([1]; 1000 nM) was 1%. It also gave an inhibition at 0.01 µM ([2]; 10 nM) of -11%, an inhibition at 0.1 µM ([2]; 100 nM) of -3% and an inhibition at 1 µM ([2]; 1000 nM) of 1%. The inhibition at 0.01 µM ([3]; 10 nM) was 6%, the inhibition at 0.1 µM ([3]; 100 nM) was -8% and the inhibition at 1 µM ([3]; 1000 nM) was -3%.
